The values below come from patent US20020183384A1, “Methods of treating nuclear factor-kappa B mediated diseases and disorders” (priority 2001, published 2002).

Structures are written as SMILES. A value given as a limit tells only on which side of the number the result lay.

The inhibition is the drop in the measured response relative to a control, in per cent.

The subject of the first experiment is NF-κB mediated transcription. Put plainly: NF-κB driven β-lactamase reporter assay in ECV-304 NF-κB.βlaZ cells (AURORA CCF2 fluorescence). Particulars: 10 μM compound; ECV-304 NF-κB.βlaZ cells stimulated with 10 ng/mL TNF-α or 100 pg/mL IL-1β, 6 hours at 37° C.; inhibition of maximum blue/green ratio. The experiment is classed as cell-based, human. The text has this:
Introduction: Described below is an in vitro, cell-based, high throughput screening assay that reliably identifies inhibitors of NF-κB mediated transcription.
The assay takes advantage of AURORA (Aurora Bioscience Corporation, La Jolla, Calif.) fluorescence technology. Endothelial cell vein-304 (ECV-304) cells, an endothelial-like immortalized cell type, may be stably transfected with a plasmid vector containing the cDNA for the enzyme β-lactamase (under the control of a basal promoter, Stratagene pNFκB-luc vector) and 5 copies of an human immunodeficiency virus-1 (HIV-1) NF-κB binding site. ECV-304 cells are described by Takahashi K. et al. in Spontaneous Transformation and Immobilization of Human Endothelial Cells, In Vitro Cell. Dev. Biol. 1990;25:265-274. Activation of NF-κB in ECV-304 by cytokines such as TNF-α or interleuken-1 beta (IL-1β) results in the production of β-lactamase, which cleaves a green fluorescent substrate (excitation/emission wavelengths 395 nm1530 nm) to yield a blue fluorescent product (excitation/emission wavelengths 395 nm/460 nm). Visually, the uncleaved green fluorescent substrate is sequestered intracellularly and emits green fluorescence, while the cleaved product emits blue fluorescence. Fluorescence is quantitated spectrophotometrically, and the spectral intensity of blue fluorescence versus green fluorescence can be used to calculate the degree of activation of NF-κB.
The assay was performed as outlined here and described in detail below. ECV-304 cells permanently transfected with the NF-κB driven β-lactamase gene (ECV-304 NF-κB.βlaZ) were plated in clear-bottom, black 96-well plates (1.25×10^4 cells/well) in media-199 (M-199) media containing 2% fetal bovine serum (FBS). […] The AURORA fluorescent disclosing reagent was then added. After one additional hour, the plates were read in a fluorometer at the blue 395 nm/460 nm (excitation/emission) and green 395 nm/530 nm wavelengths. Then the blue/green emission ratio was calculated. […] An IC50 for said sulfonylaminocarbonyl derivative was determined from a dose-response curve. This assay was designed to be optionally run in either high or low throughput screening modes.
Five copies of the HIV-1 NF-κB binding site (5′-[…]-3′) along with a TATA box were inserted into the EcorRI/BamHI sites of plasmid pMCRBlaZ to create plasmid p5×KBBlaZ, which procedure is illustrated in Scheme 1 below. [formula]
Cells were selected for antibiotic resistance with Zeocin for approximately 2 weeks. After the stable population had been expanded to a significant number of cells, it was stimulated with IL-1β and stained with AURORA CCF2 dye, a membrane permeant, intracellularly-trapped, fluorescent substrate. Cells that fluoresced blue (indicating a positive response of the NF-κB/β-lactamase reporter to stimulation by IL-1β) in the stimulated/stained population were then sorted by flow cytometry into a pool. The pool was expanded and stained with CCF2, and then the cells that fluoresced green from this unstimulated population (indicating a low background of the NF-κB/β-lactamase reporter construct) were cloned by flow cytometry after adding 1 cell per well in 96-well plates. Clones were allowed to expand. Each cloned cell line was then examined for fold stimulation after stimulation with IL-1β using a CCF2 reporter assay, and these stimulated cells were compared to unstimulated cells.
Cells: ECV-304 NF-κB β-Lactamase clone 1E8
Inhibitors: Prepared stock solutions of aminosulfonyl derivatives at 10 mM concentration in DMSO;
c) Added 10 μL of B into appropriate well in assay plate (the final concentration of drug is 10 μM), and […]
On the technique in general: A reporter such as luciferase makes a cellular process visible.
On to `COC(=O)C(C)(Cc1c[nH]c2ccccc12)NS(=O)(=O)NC(=O)OC1C2CC3CC(C2)CC1C3` (racemic) [Example 101, DL-Tryptophan, α-methyl-N-[[[(tricyclo[3.3.1.1^3,7]dec-2-yloxy)-carbonyl]amino]sulfonyl]-, methyl ester], for which the “Percent Inhibition at 10 μM” value was less than 10%.
Turning to `CC1(C)OCC(NC(=O)NS(=O)(=O)NC2COC(C)(C)OC2c2ccccc2)C(c2ccccc2)O1` (single isomer, unassigned) [Example 105, Urea, N-(2,2-dimethyl-4-phenyl-1,3-dioxan-5-yl)-N′-[[(2,2-dimethyl-4-phenyl-1,3-dioxan-5-yl)amino]sulfonyl]-, stereoisomer], the “Percent Inhibition at 10 μM” value was less than 10%.
In the case of `Cc1cc(C(C)(C)C)c(OC(=O)NS(=O)(=O)NC(c2ccccc2)c2ccccc2)c(C(C)(C)C)c1` [Example 3, Carbamic acid, [[(diphenylmethyl)amino]sulfonyl]-, 2,6-bis(l,1-dimethylethyl)-4-methylphenyl ester], the “Percent Inhibition at 10 μM” value came out at 79.34%.
`CC(C)c1cccc(C(C)C)c1NC(=O)NS(=O)(=O)Nc1c(C(C)C)cccc1C(C)C` [Example 7, Urea, N-[2 ,6-bis(1-methylethyl)phenyl]-N′-[[[2,6-bis(1-methylethyl)phenyl]-amino]sulfonyl]-]: the “Percent Inhibition at 10 μM” value was 37.04%.
Consider `CC(C)c1cccc(C(C)C)c1OC(=O)NS(=O)(=O)Nc1nc2ccccc2[nH]1` [Example 16, Carbamic acid, [(1H-benzimdazol-2-ylamino)sulfonyl]-, 2,6-bis(1-methylethyl)-phenyl ester], for which the “Percent Inhibition at 10 μM” value is on record as less than 10%.

Still in this experiment, the particulars now being: Homo sapiens, ECV-304, 6 h, 10 μM compound; ECV-304 NF-κB.βlaZ cells stimulated with 10 ng/mL TNF-α or 100 pg/mL IL-1β, 6 hours at 37° C.; inhibition of maximum blue/green ratio; read-out: Percent Inhibition at 10 μM.
In the case of `CC(C)c1cccc(C(C)C)c1NC(=O)NS(=O)(=O)NC(c1ccccc1)c1ccccc1` [Example 8, Urea, N-[2,6-bis(1-methylethyl)phenyl]-N′-[[(diphenylmethyl)amino]-sulfonyl]-], the inhibition at 10 µM is less than 10%.
On to `CC(C)c1cccc(C(C)C)c1NC(=O)NS(=O)(=O)NCC(c1ccccc1)c1ccccc1` [Example 9, Urea, N-[2,6-bis(1-methylethyl)phenyl]-N′-[[(2,2-diphenylethyl)amino]-sulfonyl]-], for which the inhibition at 10 µM came out at 33.1%.
For the molecule `CC(C)c1cccc(C(C)C)c1NC(=O)NS(=O)(=O)N(Cc1ccccc1)Cc1ccccc1` [Example 17, N-[2,6-bis(1-methylethyl)phenyl]-N′-[[bis(phenylmethyl)amino]-sulfonyl]-urea], the inhibition at 10 µM was determined as 43.8%.
The same measure, in the same setting: then `CC(C)c1cccc(C(C)C)c1NS(=O)(=O)NC(=O)NC(c1ccccc1)c1ccccc1` [Example 18, N-[[[2,6-bis(1-methylethyl)phenyl]amino]sulfonyl]-N′-(diphenylmethyl)-urea], with 35.9%; and `CC(C)c1cccc(C(C)C)c1NC(=O)NS(=O)(=O)NC1c2ccccc2-c2ccccc21` [Example 19, N-[2,6-bis(1-methylethyl)phenyl]-N′-[(9H-fluoren-9-ylamino)-sulfonyl]-urea], with 20.2%; and `CC(C)c1cccc(C(C)C)c1NC(=O)NS(=O)(=O)N(C(C)C)C(C)C` [Example 20, N-[2,6-bis(1-methylethyl)phenyl]-N′-[[bis(1-methylethyl)amino]-sulfonyl]-urea], with less than 10%.
Regarding `CCCCN(CCCC)S(=O)(=O)NC(=O)Nc1c(C(C)C)cccc1C(C)C` [Example 21, N-[2,6-bis(1-methylethyl)phenyl]-N′-[(dibutylamino)sulfonyl]-urea], the inhibition at 10 µM is 29.4%.
In the case of `CC(C)c1cccc(C(C)C)c1NC(=O)NS(=O)(=O)N(Cc1ccccc1)C(C)C` [Example 22, N-[2,6-bis(1-methylethyl)phenyl]-N′-[[(1-methylethyl)-(phenylmethyl)amino]-sulfonyl]-urea], the inhibition at 10 µM was 20.2%.
For `CCCCCCCCN(CCCCCCCC)S(=O)(=O)NC(=O)Nc1c(C(C)C)cccc1C(C)C` [Example 23, N-[2,6-bis(1-methylethyl)phenyl]-N′-[(dioctylamino)sulfonyl]-urea], the inhibition at 10 µM was found to be 38.7%.

Still in this experiment, the particulars now being: Homo sapiens; 10 μM compound; ECV-304 NF-κB.βlaZ cells stimulated with 10 ng/mL TNF-α or 100 pg/mL IL-1β, 6 hours at 37° C.; inhibition of maximum blue/green ratio; read-out: Percent Inhibition at 10 μM.
Turning to `CC(C)c1cccc(C(C)C)c1OC(=O)NS(=O)(=O)NC(c1ccccc1)c1ccccc1` [Example 1, Carbamic acid, [[(diphenylmethyl)amino]sulfonyl]-, 2,6-bis(1-methylethyl)phenyl ester], the inhibition at 10 µM was 24.8%.
In the case of `CC(C)(C)c1cccc(C(C)(C)C)c1OC(=O)NS(=O)(=O)NC(c1ccccc1)c1ccccc1` [Example 2, Carbamic acid, [[(diphenylmethyl)amino]sulfonyl]-, 2,6-bis(1,1-dimethylethyl)phenyl ester], the inhibition at 10 µM stood at 37.2%.
Regarding `CC(C)c1cccc(C(C)C)c1NS(=O)(=O)NC(=O)Oc1c(C(C)C)cccc1C(C)C` [Example 4, Carbamic acid, [[[2,6-bis(1-methylethyl)phenyl]amino]sulfonyl]-, 2,6-bis(1-methylethyl)phenyl ester], the inhibition at 10 µM was 35.3%.
`CC(C)c1cccc(C(C)C)c1NS(=O)(=O)NC(=O)Oc1c(C(C)(C)C)cccc1C(C)(C)C` [Example 5, Carbamic acid, [[[2,6-bis(1-methylethyl)phenyl]amino]sulfonyl]-, 2,6-bis(1,1-dimethylethyl)phenyl ester]: the inhibition at 10 µM is 56.4%.
For `Cc1cc(C(C)(C)C)c(OC(=O)NS(=O)(=O)Nc2c(C(C)C)cccc2C(C)C)c(C(C)(C)C)c1` [Example 6, Carbamic acid, [[[2,6-bis(1-methylethyl)phenyl]amino]sulfonyl]-, 2,6-bis(1,1-dimethylethyl)-4-methylphenyl ester], the inhibition at 10 µM came out at 64.9%.
Consider `CC(C)c1cccc(C(C)C)c1OC(=O)NS(=O)(=O)NCC(c1ccccc1)c1ccccc1` [Example 10, Carbamic acid, [[(2,2-diphenylethyl)amino]sulfonyl]-, 2,6-bis(1-methylethyl)-phenyl ester], for which the inhibition at 10 µM is 39.7%.
For `CC(C)(C)c1cccc(C(C)(C)C)c1OC(=O)NS(=O)(=O)NCC(c1ccccc1)c1ccccc1` [Example 11, Carbamic acid, [[(2,2-diphenylethyl)amino]sulfonyl]-, 2,6-bis(1,1-dimethylethyl)-phenyl ester], the inhibition at 10 µM was 50.1%.
Still for that read-out and setting: next, `Cc1cc(C(C)(C)C)c(OC(=O)NS(=O)(=O)NCC(c2ccccc2)c2ccccc2)c(C(C)(C)C)c1` [Example 12, Carbamic acid, [[(2,2-diphenylethyl)amino]sulfonyl]-, 2,6-bis(1,1-dimethylethyl)-4-methylphenyl ester]: 57%; `CC(C)c1cccc(C(C)C)c1OC(=O)NS(=O)(=O)Nc1ccccc1` [Example 13, Carbamic acid, [(phenylamino)sulfonyl]-, 2,6-bis(1-methylethyl)phenyl ester]: less than 10%.
Turning to `CC(C)(C)c1cc(O)cc(C(C)(C)C)c1OC(=O)NS(=O)(=O)Nc1ccccc1` [Example 14, Carbamic acid, [(phenylamino)sulfonyl]-, 2,6-bis(1,1-dimethylethyl)-4-hydroxyphenyl ester], the inhibition at 10 µM was determined as 13.8%.
As for `CC(C)(C)c1cccc(C(C)(C)C)c1OC(=O)NS(=O)(=O)Nc1ccccc1` [Example 15, Carbamic acid, [(phenylamino)sulfonyl]-, 2,6-bis(1,1-dimethylethyl)-phenyl ester], the inhibition at 10 µM is 12.6%.
Turning to `CC(C)(C)c1cccc(C(C)(C)C)c1OC(=O)NS(=O)(=O)N(Cc1ccccc1)Cc1ccccc1` [Example 24, Carbamic acid, [[bis(phenylmethyl)amino]sulfonyl]-, 2,6-bis(1,1-dimethylethyl)-phenyl ester], the inhibition at 10 µM came out at 31%.
